The results in this text go back to patent US7074605B2 (The Curators of the University of Missouri, priority 1997, dated 2006).

This assay addresses Clostridium perfringens α-N-acetylgalactosaminidase (Clostridium perfringens, UniProt I1SB20). The class given is biochemical.

Chain of Clostridium perfringens α-N-acetylgalactosaminidase (I1SB20 1-629 limits assumed): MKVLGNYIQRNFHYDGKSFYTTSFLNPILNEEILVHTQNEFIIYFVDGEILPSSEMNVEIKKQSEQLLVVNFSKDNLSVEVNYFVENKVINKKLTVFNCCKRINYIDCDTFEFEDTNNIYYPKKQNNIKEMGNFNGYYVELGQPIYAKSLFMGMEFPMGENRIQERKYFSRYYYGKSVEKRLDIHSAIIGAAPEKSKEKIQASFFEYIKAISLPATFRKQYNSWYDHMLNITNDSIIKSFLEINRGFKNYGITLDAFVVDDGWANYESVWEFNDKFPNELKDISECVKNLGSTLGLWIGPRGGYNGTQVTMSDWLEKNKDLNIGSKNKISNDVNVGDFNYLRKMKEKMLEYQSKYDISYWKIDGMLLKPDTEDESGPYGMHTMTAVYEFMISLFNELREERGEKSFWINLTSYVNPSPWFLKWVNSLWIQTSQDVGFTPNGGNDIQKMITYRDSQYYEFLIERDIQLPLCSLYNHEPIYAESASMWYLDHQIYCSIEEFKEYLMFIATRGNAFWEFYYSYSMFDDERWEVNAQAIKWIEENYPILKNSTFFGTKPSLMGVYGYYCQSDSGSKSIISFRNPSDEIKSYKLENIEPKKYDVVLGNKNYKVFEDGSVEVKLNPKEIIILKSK

`CC(=O)NC1C(O)CC(Oc2ccc3c(C)cc(=O)oc3c2)(C(=O)O)OC1C(O)C(O)CO` (stereo not drawn) [4MU-N-acetyl-α-neuraminic acid]: the Activity is <0.001 U/ml.
The value for `Cc1cc(=O)oc2cc(O[C@@H]3O[C@H](CO)[C@H](O)[C@H](O)[C@H]3O)ccc12` [4MU-α-D-galactopyranoside] was <0.001 U/ml; that for `CC(=O)N[C@H]1[C@@H](Oc2ccc([N+](=O)[O-])cc2)O[C@H](CO)[C@H](O)[C@@H]1O` [PNP-N-acetyl-α-D-galactosaminide] was 0.334 U/ml; that for `CC(=O)N[C@H]1[C@@H](Oc2ccc([N+](=O)[O-])cc2)O[C@H](CO)[C@@H](O)[C@@H]1O` [PNP-N-acetyl-α-D-glucosaminide] was <0.001 U/ml.
The result for `CC(=O)N[C@H]1[C@H](Oc2ccc([N+](=O)[O-])cc2)O[C@H](CO)[C@H](O)[C@@H]1O` [PNP-N-acetyl-β-D-galactosaminide] reads <0.001 U/ml; that for `CC(=O)N[C@H]1[C@H](Oc2ccc([N+](=O)[O-])cc2)O[C@H](CO)[C@@H](O)[C@@H]1O` [PNP-N-acetyl-β-D-glucosaminide], <0.001 U/ml.
The value for `O=[N+]([O-])c1ccc(O[C@H]2O[C@H](CO)[C@H](O)[C@H](O)[C@H]2O)cc1` [PNP-α-D-galactopyranoside] was <0.001 U/ml; that for `O=[N+]([O-])c1ccc(O[C@H]2O[C@H](CO)[C@@H](O)[C@H](O)[C@H]2O)cc1` [PNP-α-D-glucopyranoside] was <0.001 U/ml.
On to `O=[N+]([O-])c1ccc(O[C@H]2O[C@H](CO)[C@@H](O)[C@H](O)[C@@H]2O)cc1` [PNP-α-D-mannopyranoside], for which the Activity is <0.001 U/ml.
The value for `O=[N+]([O-])c1ccc(O[C@@H]2OC[C@H](O)[C@H](O)[C@H]2O)cc1` [PNP-α-L-arabinopyranoside] was <0.001 U/ml.
The result for `C[C@@H]1O[C@@H](Oc2ccc([N+](=O)[O-])cc2)[C@@H](O)[C@H](O)[C@@H]1O` [PNP-α-L-fucopyranoside] reads <0.001 U/ml; that for `O=[N+]([O-])c1ccc(O[C@@H]2O[C@H](CO)[C@H](O)[C@H](O)[C@H]2O)cc1` [PNP-β-D-galactopyranoside], <0.001 U/ml; that for `O=[N+]([O-])c1ccc(O[C@@H]2O[C@H](CO)[C@@H](O)[C@H](O)[C@H]2O)cc1` [PNP-β-D-glucopyranoside], <0.001 U/ml.
The result for `C[C@@H]1O[C@H](Oc2ccc([N+](=O)[O-])cc2)[C@@H](O)[C@H](O)[C@@H]1O` [PNP-β-L-fucopyranoside] reads <0.001 U/ml.
